These results are taken from paper PMC9268013, “Design, Synthesis, and Biological Evaluation of N14-Amino Acid-Substituted Tetrandrine Derivatives as Potential Antitumor Agents against Human Colorectal Cancer” (Molecules, 2022).

The test system of one test is HCT-15 cells. The experiment in a line: Flow cytometry Annexin V-FITC/PI apoptosis analysis. It is filed as cell-based, human. The conditions noted are these: 48 h. On the procedure:
HCT-15 cells were cultured in complete medium in six-well plates for 24 h, and […]. 2.5, 5 μM of 16 was added in triplicate for 48 h incubation. The cells were digested with trypsin without EDTA, washed twice with cold PBS, and resuspended in 500 μL binding buffer. The cell suspension was stained successively with 5 μL Annexin V-FITC and 5 μL PI (Keygen Biotech, Nanjing, China), and cultured for 15 min and 5 min in total dark, respectively. Afterwards, the percentages of apoptotic cells were determined by a flow cytometry. Data were analyzed by FlowJo software (Version 10, FlowJo, LLC, Ashland, OR, USA).
A general note: In flow cytometry, cells or beads pass a laser one at a time.

The subject of a further test is HUVECs. The experiment in a line: Tube formation assay on Matrigel. It is filed as cell-based, human. The following applies: HUVEC on Matrigel, 5 μM, 8 h. The procedure: Briefly, a 96-well plate was pre-coated with 50 μL Matrigel per well and incubated at 37 °C for 30 min. Then, 100 μL of HUVECs suspension (2 × 10^4) were added to each well. The cells were cultured with 1.25, 2.5, and 5 μM of 16 for 8 h. Subsequently, the tube formation was observed, randomly selected, and recorded by an inverted microscope.

The compound `COc1cc(NC(=O)[C@@H]2CCCN2)c2cc1Oc1ccc(cc1)C[C@H]1c3cc(c(OC)cc3CCN1C)Oc1c(OC)c(OC)cc3c1[C@H](C2)N(C)CC3` [Compound 16, 14-N-(L-proline)-tetrandrine] registered an Apoptotic rate in the test on HCT-15 cells (HCT-15, 2.5 μM) of 25.4%. In the test on HCT-15 cells (HCT-15, 5 μM), this compound came in with an Apoptotic rate of 52.7% and a Necrotic rate of 35.5%. The Tube formation entry in the test with HUVECs is on record as “almost no tube structure”.
